Values after ≈ are worked out from the molar mass of the structure shown. Read-outs that look alike come from different tables or passages of the source.
How the values were obtained:
A431 [1] = assay: Inhibition of cell growth by incorporation of [3H]-thymidine, A431; format: cell-based, human; conditions: Homo sapiens
HTB161 = assay: Inhibition of cancer cell growth as measured by cell number, HTB161; format: cell-based; conditions: Homo sapiens, read-out: IC50 HTB161
A27805 = assay: Inhibition of cancer cell growth as measured by cell number, A27805; format: cell-based; conditions: Homo sapiens, read-out: IC50 A27805
A2780DDP = assay: Inhibition of cancer cell growth as measured by cell number, A2780DDP; format: cell-based; conditions: Homo sapiens, read-out: IC50 A2780DDP
MIP = assay: Inhibition of cancer cell growth as measured by cell number, MIP; format: cell-based; conditions: Homo sapiens; cell number, Sulforhodamine B, 48 hours exposure; Table 4; read-out: IC50 MIP
SW620 = assay: Inhibition of cancer cell growth as measured by cell number, SW620; format: cell-based, human; conditions: Homo sapiens, SW-620, 48 h;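 note: SW620 was included as a cell line with little or no EGFR or HER2/neu expression, in contrast to receptor-overexpressing lines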
Text: (§1) The cell lines were chosen since they overexpressed epidermal growth factor receptor (EGFR) (i.e. A431) or HER2/neu (SKBR3), or had little to no expression of the these receptors (SW620, LOX, MCF7).

COLO205 = assay: Inhibition of cancer cell growth as measured by cell number, COLO205; format: cell-based; conditions: Homo sapiens, read-out: IC50 COLO205
CX1 = assay: Inhibition of cancer cell growth as measured by cell number, CX1; format: cell-based; conditions: Homo sapiens, read-out: IC50 CX1
CACO2 = assay: Inhibition of cancer cell growth as measured by cell number, CACO2; format: cell-based; conditions: Homo sapiens, read-out: IC50 CACO2
HCT15 = assay: Inhibition of cancer cell growth as measured by cell number, HCT15; format: cell-based; conditions: Homo sapiens, read-out: IC50 HCT15
LS174T = assay: Inhibition of cancer cell growth as measured by cell number, LS174T; format: cell-based; conditions: Homo sapiens
SW948 = assay: Inhibition of cancer cell growth as measured by cell number, SW948; format: cell-based; conditions: Homo sapiens, read-out: IC50 SW948
CCL228 = assay: Inhibition of cancer cell growth as measured by cell number, CCL228; format: cell-based; conditions: Homo sapiens, read-out: IC50 CCL228
MCF7 = assay: Inhibition of cancer cell growth as measured by cell number, MCF7; format: cell-based, human; conditions: Homo sapiens, MCF7, 48 h;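 note: MCF7 was included as a line with little or no EGFR or HER2/neu expression, in contrast to the receptor-overexpressing lines of the panel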
Text: as §1

B7474 = assay: Inhibition of cancer cell growth as measured by cell number, B7474; format: cell-based; conditions: Homo sapiens, read-out: IC50 B7474
T47D = assay: Inhibition of cancer cell growth as measured by cell number, T47D; format: cell-based; conditions: Homo sapiens
LX1 = assay: Inhibition of cancer cell growth as measured by cell number, LX1; format: cell-based; conditions: Homo sapiens, read-out: IC50 LX1
A549 = assay: Inhibition of cancer cell growth as measured by cell number, A549; format: cell-based; conditions: Homo sapiens, read-out: IC50 A549
LOX = assay: Inhibition of cancer cell growth as measured by cell number, LOX; format: cell-based, human; conditions: Homo sapiens, LOX, 48 h;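 note: LOX cells served as a line with low or absent EGFR and HER2/neu expression, in contrast to receptor-overexpressing lines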
Text: as §1

A431 [2] = assay: Inhibition of cancer cell growth as measured by cell number, A431; format: cell-based, human; conditions: Homo sapiens, A-431, 48 h;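 note: human A431 line, picked because it overexpresses epidermal growth factor receptor (EGFR)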
Text: as §1

NEC = assay: Inhibition of cancer cell growth as measured by cell number, NEC; format: cell-based; conditions: Homo sapiens, read-out: IC50 NEC
DU145 = assay: Inhibition of cancer cell growth as measured by cell number, DU145; format: cell-based; conditions: Homo sapiens, read-out: IC50 DU145
PC3 = assay: Inhibition of cancer cell growth as measured by cell number, PC3; format: cell-based; conditions: Homo sapiens, read-out: IC50 PC3
LNCAP = assay: Inhibition of cancer cell growth as measured by cell number, LNCAP; format: cell-based; conditions: Homo sapiens
HL60 = assay: Inhibition of cancer cell growth as measured by cell number, HL60; format: cell-based; conditions: Homo sapiens, read-out: IC50 HL60
CCRF-CFM = assay: Inhibition of cancer cell growth as measured by cell number, CCRF-CFM; format: cell-based; conditions: Homo sapiens, read-out: IC50 CCRF-CFM
SKBR3 = assay: Inhibition of cancer cell growth as measured by cell number, SKBR3; format: cell-based, human; conditions: Homo sapiens;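 note: SK-BR-3 cells were selected as a line overexpressing HER2/neu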
Text: as §1

[3] = target: recombinant human MEK 1 (MAPKK) and recombinant human ERK2 (MAPK); assay: Mitogen Activated Protein Kinase (MAPK) assay, two component coupled MEK 1 / ERK2; format: biochemical; conditions: separate entries for the same compound = evaluated more than one time;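 note: MEK 1-activated ERK2 phosphorylates MBP or Myc peptide with 33P-ATP, filter capture and scintillation counting, inhibitor preincubated with ERK2 30 min at 0 °C, inhibition relative to uninhibited control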
[4] = target: epidermal growth factor receptor kinase (Homo sapiens, UniProt P00533); assay: biochemical
[5] = cell number, Sulforhodamine B, 48 hours exposure, Table 4
[6] = cell number, Sulforhodamine B, 48 hours exposure, Table 6

Chain of epidermal growth factor receptor kinase (P00533 25-1210): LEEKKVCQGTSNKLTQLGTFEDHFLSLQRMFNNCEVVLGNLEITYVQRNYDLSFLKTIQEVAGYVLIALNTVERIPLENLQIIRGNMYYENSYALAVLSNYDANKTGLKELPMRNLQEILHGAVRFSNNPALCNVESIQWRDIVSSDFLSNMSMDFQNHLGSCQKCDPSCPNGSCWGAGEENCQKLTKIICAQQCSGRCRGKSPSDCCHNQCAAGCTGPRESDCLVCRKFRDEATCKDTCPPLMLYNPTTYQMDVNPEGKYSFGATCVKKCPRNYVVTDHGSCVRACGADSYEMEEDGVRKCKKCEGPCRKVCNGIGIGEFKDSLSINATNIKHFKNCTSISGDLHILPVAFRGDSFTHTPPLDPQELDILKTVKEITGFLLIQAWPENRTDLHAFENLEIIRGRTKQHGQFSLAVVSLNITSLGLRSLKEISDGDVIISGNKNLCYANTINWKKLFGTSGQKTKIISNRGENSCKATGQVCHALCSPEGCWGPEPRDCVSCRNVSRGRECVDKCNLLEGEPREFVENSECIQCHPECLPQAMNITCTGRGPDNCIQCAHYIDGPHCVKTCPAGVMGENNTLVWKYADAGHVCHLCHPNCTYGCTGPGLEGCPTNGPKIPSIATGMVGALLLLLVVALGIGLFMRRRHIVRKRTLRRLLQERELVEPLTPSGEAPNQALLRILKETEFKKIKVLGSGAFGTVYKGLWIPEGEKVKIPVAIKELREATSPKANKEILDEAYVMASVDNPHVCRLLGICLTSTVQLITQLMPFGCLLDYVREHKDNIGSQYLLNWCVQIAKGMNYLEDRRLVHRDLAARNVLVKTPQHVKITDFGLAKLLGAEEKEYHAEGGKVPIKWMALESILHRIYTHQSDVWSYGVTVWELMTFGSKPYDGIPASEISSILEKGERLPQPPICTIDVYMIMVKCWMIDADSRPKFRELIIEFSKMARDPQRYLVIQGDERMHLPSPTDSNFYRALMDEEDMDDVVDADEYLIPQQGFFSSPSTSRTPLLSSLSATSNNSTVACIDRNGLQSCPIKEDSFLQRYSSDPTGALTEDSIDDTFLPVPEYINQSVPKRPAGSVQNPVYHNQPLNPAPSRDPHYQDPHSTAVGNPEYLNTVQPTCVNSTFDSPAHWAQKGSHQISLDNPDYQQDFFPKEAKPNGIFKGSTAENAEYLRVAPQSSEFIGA

`COc1cc2ncc(C#N)c(NC3CCCCC3)c2cc1OC` [Example 38, 4-(Cyclohexyamino)-6,7-dimethoxy-3-quinolinecarbonitrile] gave an IC50 (A431 [1]; A-431, [3H]-thymidine incorporation, A431, read-out: IC50 A431) of 35000 nM, an IC50 (HTB161; [5]) of 3.19 µg/mL (≈ 10.3 µM) and an IC50 (A27805; [5]) of 4.58 µg/mL (≈ 14.7 µM). It also gave an IC50 (A2780DDP; [5]) of 6.56 µg/mL (≈ 21.1 µM), an IC50 (MIP) of 7.75 µg/mL (≈ 24.9 µM) and an IC50 (SW620; cell number, Sulforhodamine B, 48 hours exposure, Table 4, read-out: IC50 SW620) of 31.7 µg/mL (≈ 102 µM). For the same compound, the IC50 (COLO205; COLO 205, cell number, Sulforhodamine B, 48 hours exposure, Table 4) was 6.43 µg/mL (≈ 20.6 µM), the IC50 (CX1; CX-1, cell number, Sulforhodamine B, 48 hours exposure, Table 4) was 5.62 µg/mL (≈ 18.1 µM) and the IC50 (CACO2; Caco-2, cell number, Sulforhodamine B, 48 hours exposure, Table 5) was 5.62 µg/mL (≈ 18 µM). The IC50 (HCT15; HCT-15, cell number, Sulforhodamine B, 48 hours exposure, Table 5) was 5.16 µg/mL (≈ 16.6 µM), the IC50 (LS174T; cell number, Sulforhodamine B, 48 hours exposure, Table 5, read-out: IC50 LS174T) was 5.37 µg/mL (≈ 17.2 µM) and the IC50 (SW948; SW948, cell number, Sulforhodamine B, 48 hours exposure, Table 5) was 10.4 µg/mL (≈ 33.5 µM). For the same compound, the IC50 (CCL228; cell number, Sulforhodamine B, 48 hours exposure, Table 5) was 8.49 µg/mL (≈ 27.3 µM), the IC50 (MCF7; cell number, Sulforhodamine B, 48 hours exposure, Table 5, read-out: IC50 MCF7) was 6 µg/mL (≈ 19.3 µM) and the IC50 (B7474; [6]) was 17 µg/mL (≈ 54.5 µM). It also gave an IC50 (T47D; cell number, Sulforhodamine B, 48 hours exposure, Table 6, read-out: IC50 T47D) of 5.98 µg/mL (≈ 19.2 µM), an IC50 (LX1; LX-1, cell number, Sulforhodamine B, 48 hours exposure, Table 6) of 7.52 µg/mL (≈ 24.2 µM) and an IC50 (A549; A549, cell number, Sulforhodamine B, 48 hours exposure, Table 6) of 7.33 µg/mL (≈ 23.5 µM). It also gave an IC50 (LOX; cell number, Sulforhodamine B, 48 hours exposure, Table 6, read-out: IC50 LOX) of 8.12 µg/mL (≈ 26.1 µM), an IC50 (A431 [2]; cell number, Sulforhodamine B, 48 hours exposure, Table 6, read-out: IC50 A431) of 4.73 µg/mL (≈ 15.2 µM) and an IC50 (NEC; [6]) of 6.53 µg/mL (≈ 21 µM). It also gave an IC50 (DU145; DU-145, cell number, Sulforhodamine B, 48 hours exposure, Table 7) of 5.15 µg/mL (≈ 16.5 µM), an IC50 (PC3; PC-3, cell number, Sulforhodamine B, 48 hours exposure, Table 7) of 9.33 µg/mL (≈ 30 µM) and an IC50 (LNCAP; cell number, Sulforhodamine B, 48 hours exposure, Table 7, read-out: IC50 LNCAP) of 4.58 µg/mL (≈ 14.7 µM). It also gave an IC50 (HL60; HL-60, cell number, Sulforhodamine B, 48 hours exposure, Table 7) of 4.27 µg/mL (≈ 13.7 µM), an IC50 (CCRF-CFM; cell number, Sulforhodamine B, 48 hours exposure, Table 7) of 4.39 µg/mL (≈ 14.1 µM) and an IC50 (SKBR3; SK-BR-3, cell number, Sulforhodamine B, 48 hours exposure, Table 7, read-out: IC50 SKBR3) of 7.14 µg/mL (≈ 22.9 µM). For the same compound, the IC50 [3] was 45000 nM.

In the case of `COc1cc2ncc(C#N)c(Nc3cccc(Cl)c3)c2cc1OC` [Example 41, 4-[(3-Chlorophenyl)amino]-6,7-dimethoxy-3-quinolinecarbonitrile], the IC50 (A431 [1]; A-431, read-out: IC50 A431) is reported as 1500 nM, the IC50 (HTB161; 48 h) is reported as 7.87 µg/mL (≈ 23.2 µM) and the IC50 (A27805; 48 h) is reported as 7.73 µg/mL (≈ 22.7 µM). The IC50 (A2780DDP; 48 h) was 6.25 µg/mL (≈ 18.4 µM), the IC50 (MIP) was 4.09 µg/mL (≈ 12 µM) and the IC50 (SW620; read-out: IC50 SW620, cell number, Sulforhodamine B, 48 hours exposure, Table 4) was 14.7 µg/mL (≈ 43.1 µM). For the same compound, the IC50 (SW620; read-out: IC50 SW620, cell number, Sulforhodamine B, 48 hours exposure, Table 8) was 2.23 µg/mL (≈ 6.56 µM), the IC50 (COLO205; COLO 205, 48 h) was 6.13 µg/mL (≈ 18 µM) and the IC50 (CX1; CX-1, 48 h) was 7.25 µg/mL (≈ 21.3 µM). The IC50 (CACO2; Caco-2, 48 h) was 2.11 µg/mL (≈ 6.21 µM), the IC50 (HCT15; HCT-15, 48 h) was 4.21 µg/mL (≈ 12.4 µM) and the IC50 (LS174T; 48 h, read-out: IC50 LS174T) was 2.92 µg/mL (≈ 8.61 µM). It also gave an IC50 (SW948; SW948, 48 h) of 14.1 µg/mL (≈ 41.6 µM), an IC50 (CCL228; 48 h) of 18.5 µg/mL (≈ 54.4 µM) and an IC50 (MCF7; read-out: IC50 MCF7, cell number, Sulforhodamine B, 48 hours exposure, Table 5) of 24.8 µg/mL (≈ 73.1 µM). For the same compound, the IC50 (MCF7; read-out: IC50 MCF7, cell number, Sulforhodamine B, 48 hours exposure, Table 8) was 6.86 µg/mL (≈ 20.2 µM), the IC50 (B7474; 48 h) was 6.26 µg/mL (≈ 18.4 µM) and the IC50 (T47D; 48 h, read-out: IC50 T47D) was 8.5 µg/mL (≈ 25 µM). It also gave an IC50 (LX1; LX-1, 48 h) of 48.7 µg/mL (≈ 143 µM), an IC50 (A549; A549, 48 h) of 25 µg/mL (≈ 73.5 µM) and an IC50 (LOX; read-out: IC50 LOX, cell number, Sulforhodamine B, 48 hours exposure, Table 6) of 0.961 µg/mL (≈ 2.83 µM). It also gave an IC50 (LOX; read-out: IC50 LOX, cell number, Sulforhodamine B, 48 hours exposure, Table 8) of 1.33 µg/mL (≈ 3.91 µM), an IC50 (A431 [2]; read-out: IC50 A431, cell number, Sulforhodamine B, 48 hours exposure, Table 6) of 0.813 µg/mL (≈ 2.39 µM) and an IC50 (A431 [2]; read-out: IC50 A431, cell number, Sulforhodamine B, 48 hours exposure, Table 8) of 0.24 µg/mL (≈ 0.706 µM). It also gave an IC50 (NEC; 48 h) of 8.46 µg/mL (≈ 24.9 µM), an IC50 (DU145; DU-145, 48 h) of 0.913 µg/mL (≈ 2.69 µM) and an IC50 (PC3; PC-3, 48 h) of 17.5 µg/mL (≈ 51.5 µM). It also gave an IC50 (LNCAP; 48 h, read-out: IC50 LNCAP) of 3.53 µg/mL (≈ 10.4 µM), an IC50 (HL60; HL-60, 48 h) of 3.23 µg/mL (≈ 9.52 µM) and an IC50 (CCRF-CFM; 48 h) of 8.29 µg/mL (≈ 24.4 µM). The IC50 (SKBR3; SK-BR-3, 48 h, read-out: IC50 SKBR3, cell number, Sulforhodamine B, 48 hours exposure, Table 7) was 20.6 µg/mL (≈ 60.8 µM), the IC50 (SKBR3; SK-BR-3, 48 h, read-out: IC50 SKBR3, cell number, Sulforhodamine B, 48 hours exposure, Table 8) was 0.48 µg/mL (≈ 1.41 µM) and the IC50 [3] was 1400 nM. For the same compound, the IC50 [4] was 200 nM.
